Data from the supplement of paper PMC10307832.

Legend:
Experiment in all cases: relative viability (nuclei count vs DMSO), 5 days (fraction); higher = more cells survive
HCC-78 = tested on: HCC-78
Procedure, shortened: (§1)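 Relative viability divides the nuclei count in treated wells by that in vehicle wells. Lung cancer cell lines were seeded in 1536-well plates, dosed by pin tool the next day, and fixed and stained after 5 days in one step with final 0.05% Triton X-100, 1% formaldehyde and 1 ug/ml Hoechst. Dosing was a single drug or a fixed anchor-drug dose plus five library-drug doses (not always all listed) in √10 steps, and values are medians of duplicate plates imaged at 4×.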

COR-L 105 = tested on: COR-L 105
Procedure, shortened: as §1

HOP-62 = tested on: HOP-62
Procedure, shortened: as §1

NCI-H1915 = tested on: NCI-H1915
Procedure, shortened: as §1

NCI-H460 = tested on: NCI-H460
Procedure, shortened: as §1

NCI-H1666 = tested on: NCI-H1666
Procedure, shortened: as §1

NCI-H2009 = tested on: NCI-H2009
Procedure, shortened: as §1

EPLC-272H = tested on: EPLC-272H
Procedure, shortened: as §1

SK-LU-1 = tested on: SK-LU-1
Procedure, shortened: as §1

NCI-H358 = tested on: NCI-H358
Procedure, shortened: as §1

NCI-H1792 = tested on: NCI-H1792
Procedure, shortened: as §1

NCI-H1793 = tested on: NCI-H1793
Procedure, shortened: as §1

A-427 = tested on: A-427
Procedure, shortened: as §1

HCC-366 = tested on: HCC-366
Procedure, shortened: as §1

NCI-H1944 = tested on: NCI-H1944
Procedure, shortened: as §1

UMC-11 = tested on: UMC-11
Procedure, shortened: as §1

LC-2-ad = tested on: LC-2-ad
Procedure, shortened: as §1

LU99A = tested on: LU99A
Procedure, shortened: as §1

NCI-H2170 = tested on: NCI-H2170
Procedure, shortened: as §1

NCI-H2085 = tested on: NCI-H2085
Procedure, shortened: as §1

LXF-289 = tested on: LXF-289
Procedure, shortened: as §1

Molecule CCN(CC)CCCCNc1ncc2cc(-c3cc(OC)cc(OC)c3)c(NC(=O)NC(C)(C)C)nc2n1 + CS(=O)(=O)CCNCc1ccc(-c2ccc3ncnc(Nc4ccc(OCc5cccc(F)c5)c(Cl)c4)c3c2)o1 [Lapatinib] (partner 2 µM) has a relative viability (HCC-78; first compound 0.03162 µM) of 1.09, a relative viability (HCC-78; first compound 0.1 µM) of 1.09 and a relative viability (HCC-78; first compound 0.3162 µM) of 0.87. For the same molecule, the relative viability (HCC-78; first compound 1 µM) was 0.748, the relative viability (COR-L 105; first compound 0.01 µM) was 0.386 and the relative viability (COR-L 105; first compound 0.03162 µM) was 0.361. For the same molecule, the relative viability (COR-L 105; first compound 0.1 µM) was 0.399, the relative viability (COR-L 105; first compound 0.3162 µM) was 0.422 and the relative viability (COR-L 105; first compound 1 µM) was 0.387. The relative viability (HOP-62; first compound 0.01 µM) was 1.01, the relative viability (HOP-62; first compound 0.03162 µM) was 1.16 and the relative viability (HOP-62; first compound 0.1 µM) was 1.19. The relative viability (HOP-62; first compound 0.3162 µM) was 1.09, the relative viability (HOP-62; first compound 1 µM) was 1.33 and the relative viability (NCI-H1915; first compound 0.01 µM) was 1.1. For the same molecule, the relative viability (NCI-H1915; first compound 0.03162 µM) was 1.03, the relative viability (NCI-H1915; first compound 0.1 µM) was 0.775 and the relative viability (NCI-H1915; first compound 0.3162 µM) was 1.1. For the same molecule, the relative viability (NCI-H1915; first compound 1 µM) was 0.971, the relative viability (NCI-H460; first compound 0.01 µM) was 1.27 and the relative viability (NCI-H460; first compound 0.03162 µM) was 1.18. The relative viability (NCI-H460; first compound 0.1 µM) was 0.985, the relative viability (NCI-H460; first compound 0.3162 µM) was 1.53 and the relative viability (NCI-H460; first compound 1 µM) was 0.532. The relative viability (NCI-H1666; first compound 0.01 µM) was 0.819, the relative viability (NCI-H1666; first compound 0.03162 µM) was 0.62 and the relative viability (NCI-H1666; first compound 0.1 µM) was 0.604. It also gave a relative viability (NCI-H1666; first compound 0.3162 µM) of 0.684, a relative viability (NCI-H1666; first compound 1 µM) of 0.498 and a relative viability (NCI-H2009; first compound 0.01 µM) of 0.898. The relative viability (NCI-H2009; first compound 0.03162 µM) was 0.971, the relative viability (NCI-H2009; first compound 0.1 µM) was 0.956 and the relative viability (NCI-H2009; first compound 0.3162 µM) was 0.932. The relative viability (NCI-H2009; first compound 1 µM) was 1.43, the relative viability (EPLC-272H; first compound 0.01 µM) was 1.05 and the relative viability (EPLC-272H; first compound 0.1 µM) was 0.956. It also gave a relative viability (EPLC-272H; first compound 0.3162 µM) of 0.922, a relative viability (EPLC-272H; first compound 1 µM) of 0.642 and a relative viability (SK-LU-1; first compound 0.01 µM) of 0.985. It also gave a relative viability (SK-LU-1; first compound 0.03162 µM) of 0.975, a relative viability (SK-LU-1; first compound 0.1 µM) of 0.947 and a relative viability (SK-LU-1; first compound 0.3162 µM) of 1.2. It also gave a relative viability (SK-LU-1; first compound 1 µM) of 0.638, a relative viability (NCI-H358; first compound 0.01 µM) of 0.449 and a relative viability (NCI-H358; first compound 0.03162 µM) of 0.484. It also gave a relative viability (NCI-H358; first compound 0.1 µM) of 0.457, a relative viability (NCI-H358; first compound 0.3162 µM) of 0.498 and a relative viability (NCI-H358; first compound 1 µM) of 0.406. It also gave a relative viability (NCI-H1792; first compound 0.01 µM) of 0.97, a relative viability (NCI-H1792; first compound 0.03162 µM) of 0.886 and a relative viability (NCI-H1792; first compound 0.1 µM) of 1.21. The relative viability (NCI-H1792; first compound 0.3162 µM) was 1.64, the relative viability (NCI-H1792; first compound 1 µM) was 0.433 and the relative viability (NCI-H1793; first compound 0.01 µM) was 0.623. The relative viability (NCI-H1793; first compound 0.1 µM) was 1.03, the relative viability (NCI-H1793; first compound 0.3162 µM) was 0.562 and the relative viability (NCI-H1793; first compound 1 µM) was 0.367. For the same molecule, the relative viability (A-427; first compound 0.01 µM) was 1.15, the relative viability (A-427; first compound 0.03162 µM) was 0.971 and the relative viability (A-427; first compound 0.1 µM) was 1.08. For the same molecule, the relative viability (A-427; first compound 0.3162 µM) was 1.1, the relative viability (A-427; first compound 1 µM) was 0.899 and the relative viability (HCC-366; first compound 0.01 µM) was 1.05. For the same molecule, the relative viability (HCC-366; first compound 0.03162 µM) was 1.07, the relative viability (HCC-366; first compound 0.1 µM) was 1.73 and the relative viability (HCC-366; first compound 0.3162 µM) was 1.27. It also gave a relative viability (HCC-366; first compound 1 µM) of 1.06, a relative viability (NCI-H1944; first compound 0.01 µM) of 0.903 and a relative viability (NCI-H1944; first compound 0.03162 µM) of 0.789. For the same molecule, the relative viability (NCI-H1944; first compound 0.1 µM) was 0.996, the relative viability (NCI-H1944; first compound 0.3162 µM) was 0.836 and the relative viability (NCI-H1944; first compound 1 µM) was 0.676. The relative viability (UMC-11; first compound 0.01 µM) was 1.18, the relative viability (UMC-11; first compound 0.03162 µM) was 1.04 and the relative viability (UMC-11; first compound 0.1 µM) was 1.1. The relative viability (UMC-11; first compound 0.3162 µM) was 1.11, the relative viability (UMC-11; first compound 1 µM) was 0.94 and the relative viability (LC-2-ad; first compound 0.01 µM) was 1.05. The relative viability (LC-2-ad; first compound 0.03162 µM) was 1, the relative viability (LC-2-ad; first compound 0.1 µM) was 1.22 and the relative viability (LC-2-ad; first compound 0.3162 µM) was 1.12. For the same molecule, the relative viability (LC-2-ad; first compound 1 µM) was 0.917, the relative viability (LU99A; first compound 0.01 µM) was 0.946 and the relative viability (LU99A; first compound 0.03162 µM) was 0.924. For the same molecule, the relative viability (LU99A; first compound 0.1 µM) was 1.17, the relative viability (LU99A; first compound 0.3162 µM) was 1.14 and the relative viability (LU99A; first compound 1 µM) was 0.93. For the same molecule, the relative viability (NCI-H2170; first compound 0.01 µM) was 0.282, the relative viability (NCI-H2170; first compound 0.03162 µM) was 0.269 and the relative viability (NCI-H2170; first compound 0.1 µM) was 0.298. The relative viability (NCI-H2170; first compound 0.3162 µM) was 0.271, the relative viability (NCI-H2170; first compound 1 µM) was 0.276 and the relative viability (NCI-H2085; first compound 0.01 µM) was 0.791. For the same molecule, the relative viability (NCI-H2085; first compound 0.03162 µM) was 0.691, the relative viability (NCI-H2085; first compound 0.1 µM) was 0.828 and the relative viability (NCI-H2085; first compound 0.3162 µM) was 0.85. For the same molecule, the relative viability (NCI-H2085; first compound 1 µM) was 0.68, the relative viability (LXF-289; first compound 0.01 µM) was 0.893 and the relative viability (LXF-289; first compound 0.03162 µM) was 0.944. For the same molecule, the relative viability (LXF-289; first compound 0.1 µM) was 0.941, the relative viability (LXF-289; first compound 0.3162 µM) was 0.865 and the relative viability (LXF-289; first compound 1 µM) was 0.599.
